# Columns and labels:
# [1] = Pharmacokinetic study, 100 mg resveratrol, oral transmucosal resveratrol/solubilizer formulation (test) versus controls; type: in vivo, human; conditions: for Cav: plasma
# Experimental: Any adverse effects are recorded. […] These adjustments are made using the formulas […])).
# [2] = Resveratrol solubility in ribose, U.V. HPLC and mass spectrometry peak areas (Table 1); type: physicochemical
# Experimental: The peak areas of the LC traces using U.V. and MS spectral detection were determined. […]
# [3] = Dissolution of resveratrol in sugar or sugar alcohol solutions (observation); type: physicochemical
# Experimental: A ribose/water solution (18 g/2 g) was heated.
# In another experiment, various sucrose/water mixtures were heated to boiling point. Reservatrol was added to each sucrose/water solution. […] On cooling, resveratrol/sucrose/water mixtures formed crystalline solids composed of small crystals; in contrast, the sucrose/water solution formed a crystalline solid composed of large crystals.
# In another experiment, water was added to the solid resveratrol/sucrose/water mixtures.
# An aqueous solution of dextrose was prepared and heated to boiling. The resveratrol was added to the warm syrup and allowed to cool further. While still liquid, the syrup retained a capsinoid flavor. On cooling further, a white powdery mixture of crystals was formed. No capsinoid-like flavor was detected when the solid mixture was tasted.
# Resveratrol was added to warm solutions of xylitol or erythritol. […] On cooling the xylitol or erythritol solution formed a crystalline solid that appeared to exclude the resveratrol. No capsaicirioid-like flavor was detected when each reservatrol/xylitol and reservatrol/erythritol solid mixture was tasted.
# Water was added to the each reservatrol/xylitol and reservatrol/erythritol mixture.
# [4] = Solubility of resveratrol in 3M ribose, U.V. HPLC and MS peak areas (Table 2); type: physicochemical
# Text: Table 2 and 3 summarize the results.
# [5] = trans/cis isomerisation of resveratrol in water or 3 M ribose, with or without 30 minutes U.V. light (Table 3, FIGS. 1-4); type: physicochemical; conditions: for cis isomer peak area, Mass spectroscopy / cis isomer peak area, PDA (trans-316 nm, cis-284 nm) / cis isomer peak area, Tandem mass spectroscopy / trans isomer peak area, Mass spectroscopy / trans isomer peak area, PDA (trans-316 nm, cis-284 nm) / trans isomer peak area, Tandem mass spectroscopy: UV exposed 30 minutes
# Text: PDA-284 nm panel: NL: 4.31E5; nm=283.5-284.5; PDA Avalon. MS Panel: NL: 3.90E6; m/z=226.60-227.60; F: -c APCI corona; sid=10.00; Full ms [100.00-1000.00] MS ICIS. Tandem MS panel: NL: 7.71E5; m/z=184.50-185.50; F: -c APCI corona; sid=10.00 Full ms2 227.00@cid45.00 [60.00-250.00] MS ICIS.
# [6] = 0.4 mg/ml standard in MeOH/water
# [7] = 1.3 mg resveratrol in 1 ml 1M ribose
# [8] = 1.3 mg resveratrol in 1 ml water
# [9] = 1.6 mg resveratrol in 1 ml 3M ribose
# [10] = 1.6 mg resveratrol in 1 ml water
smiles,measurement,setting,value
"O=S(=O)(O)Oc1cc(O)cc(/C=C/c2ccc(O)cc2)c1 [3-sulfate, trans-resveratrol-3-O-sulfate]",Cav,[1]; Control(s): 100 mg resveratrol,34 ng/mL
same,Cav,"[1]; Test: 100 mg resveratrol, oral transmucosal resveratrol/solubilizer formulation",23 ng/mL
"Oc1ccc(/C=C/c2cc(O)cc(O)c2)cc1 [Resveratrol, 3,5,4′-trihydroxy-trans-stilbene]",Resveratrol MS peak area,[2]; [6],361620189
same,Resveratrol MS/MS peak area,[2]; [6],22825783
same,Resveratrol UV peak area,[2]; [6],32589198
same,Resveratrol MS peak area,[2]; [7],34006422
same,Resveratrol MS/MS peak area,[2]; [7],2177343
same,Resveratrol UV peak area,[2]; [7],6879044
same,Resveratrol MS peak area,[2]; [8],17991728
same,Resveratrol MS/MS peak area,[2]; [8],1055482
same,Resveratrol UV peak area,[2]; [8],3757436
same,Resveratrol MS peak area,[2]; 1:1 dilution of ribose sample,59987321
same,Resveratrol MS/MS peak area,[2]; 1:1 dilution of ribose sample,4277049
same,Resveratrol UV peak area,[2]; 1:1 dilution of ribose sample,10156011
same,Resveratrol MS peak area,[2]; 1:1 dilution of water sample,36350491
same,Resveratrol MS/MS peak area,[2]; 1:1 dilution of water sample,2235878
same,Resveratrol UV peak area,[2]; 1:1 dilution of water sample,7414378
same,percentage increase in the peak area with ribose,[2]; ribose (undiluted) sample versus water sample,83.1%
same,"Serum Cmax levels of resveratrol, test versus control subjects",[1]; 100 mg resveratrol,higher in test subjects
same,"peak plasma level and bioavailability, test versus controls",[1]; resveratrol/solubilizer formulation by oral transmucosal route versus oral transmucosal resveratrol/sucrose or oral resveratrol/solubilizer,greater peak plasma level and bioavailability
same,solubility,"[3]; aqueous dextrose solution, heated to boiling and cooled",not well soluble
same,solubility,[3]; in ribose and in fructose/dextrose,soluble
same,solubility in the presence of ribose,"[3]; ribose/water solution (18 g/2 g), 100 mg resveratrol to 1000 mg solution, inferred from sensation in the mouth",increased
same,dissolution,[3]; sucrose/water solution (1:1 v/v),failed to dissolve
same,dissolution,"[3]; various sucrose/water mixtures heated to about 90° C., then cooled",failed to dissolve
same,dissolution,[3]; warm solutions of xylitol or erythritol,observed not to dissolve
same,behaviour on adding water,[3]; water added to reservatrol/xylitol and reservatrol/erythritol mixtures,precipitated out of solution
same,behaviour on adding water,[3]; water added to the solid resveratrol/sucrose/water mixtures,precipitated out of solution
same,"peak area, Mass spectroscopy",[4]; [9],69226333
same,"peak area, PDA (trans-316 nm, cis-284 nm)",[4]; [9],17477801
same,"peak area, Tandem mass spectroscopy",[4]; [9],11603388
same,"peak area, Mass spectroscopy",[4]; [10],35925663
same,"peak area, PDA (trans-316 nm, cis-284 nm)",[4]; [10],10448839
same,"peak area, Tandem mass spectroscopy",[4]; [10],6058729
same,"% increase of peak area, Mass spectroscopy",[4]; 3M ribose versus water,92.7%
same,"% increase of peak area, PDA (trans-316 nm, cis-284 nm)",[4]; 3M ribose versus water,67.3%
same,"% increase of peak area, Tandem mass spectroscopy",[4]; 3M ribose versus water,91.5%
same,"cis isomer peak area, Mass spectroscopy",[5]; 3M ribose,67794774
same,"cis isomer peak area, PDA (trans-316 nm, cis-284 nm)",[5]; 3M ribose,3348277
same,"cis isomer peak area, Tandem mass spectroscopy",[5]; 3M ribose,12957854
same,"trans isomer peak area, Mass spectroscopy",[5]; 3M ribose,30056046
same,"trans isomer peak area, PDA (trans-316 nm, cis-284 nm)",[5]; 3M ribose,9667985
same,"trans isomer peak area, Tandem mass spectroscopy",[5]; 3M ribose,4678183
same,"isomers detected, PDA-316 nm panel","[5]; FIG. 1, 1.6 mg resveratrol in 1 ml water, no U.V. exposure",cis isomer is not detected
same,"isomers detected, PDA-316 nm panel","[5]; FIG. 2, 1.6 mg resveratrol in 1 ml 3 M ribose, no U.V. exposure",cis isomer is not detected
same,"isomers detected, PDA-316 nm panel","[5]; FIG. 3, 1.6 mg resveratrol in 1 ml water exposed to U.V. light for 30 minutes",trans isomer and cis isomer peaks detected
same,"isomers detected, PDA-316 nm panel","[5]; FIG. 4, 1.6 mg resveratrol in 1 ml 3 M ribose exposed to U.V. light for 30 minutes",trans isomer and cis isomer peaks detected
same,"cis isomer peak area, Mass spectroscopy",[5]; Water,42202693
same,"cis isomer peak area, PDA (trans-316 nm, cis-284 nm)",[5]; Water,2260306
same,"cis isomer peak area, Tandem mass spectroscopy",[5]; Water,8357052
same,"trans isomer peak area, Mass spectroscopy",[5]; Water,7702267
same,"trans isomer peak area, PDA (trans-316 nm, cis-284 nm)",[5]; Water,3293034
same,"trans isomer peak area, Tandem mass spectroscopy",[5]; Water,1489337

# — US11077070B2 (Wilmore Labs LLC, priority 2009, dated 2021)
